# Assay results taken from US8101648B2, “Hydroxybenzamide derivatives and their use as inhibitors of HSP90” (Astex Therapeutics, Ltd., priority 2005, dated 2012).
# Counter-ions that a name gives are not always drawn. Like-named read-outs stand apart in the source and are kept apart here.
# What was measured:
# HCT116 cell line = test: Anti-proliferative activity, Alamar Blue assay; type: cell-based, human
# Description: The anti-proliferative activities of compounds of the invention can be determined by measuring the ability of the compounds to inhibition of cell growth in a number of cell lines such as the human colon cancer cell line HCT116. […] The method is based on the ability of viable cells to reduce resazurin to its fluorescent product resorufin. […] The number of viable cells is determined by Alamar Blue assay as before. Cell lines can be obtained from the ECACC (European Collection of cell Cultures).
# [1] = molecular target: T1, human Hsp90α N-terminal domain (Homo sapiens, UniProt P07900); test: Isothermal titration calorimetry (ITC) binding; settings: 25 mM Tris, 100 mM NaCl, 1 mM MgCl2, 1 mM TCEP, 5% DMSO, pH 7.4
# T1 construct: Cloning, expression, and purification of the Human Hsp90α N-terminal domain were performed according to published methods; made in house
# Description: The ability of the compounds of the invention to bind to human Hsp90 proteins was determined using isothermal titration calorimetry.
# Isothermal titration calorimetry (ITC) experiments were performed with a VP-ITC titration calorimeter (Microcal Inc., Northampton, Mass., USA). […] All solutions were filtered and degassed prior to a titration being carried out. The enthalpy change resulting from each injection of ligand was obtained through integration of the calorimetric signal. Data were analysed using Origin 7.0 (Microcal Software Inc., Northampton, Mass.). Heats of dilution were estimated using the final injections of each individual titration and subtracted before data fitting. Different ITC experimental formats were employed in order to obtain compound dissociation constants (Kd's) over a wide range of affinities. […] In this type of experiment the stoichiometry parameter (N) was locked at 1 for data fitting. […] For the majority of these experiments the protein concentration in the calorimetric cell was in the range […] and the ligand concentration in the injection syringe ranged from […].
# [2] = HCT-116, human colon cancer cell line HCT116, 72 hours with compound, read-out: IC50
SMILES,Kd [1],IC50 (HCT116 cell line; [2]),"IC50 (HCT116 cell line; Homo sapiens, HCT-116, 72 h)"
CC(C)c1cc(C(=O)N2Cc3ccccc3C2)c(O)cc1O [Example 5],–,–,< 1000 nM
"CC(C)c1cc(C(=O)N2Cc3ccccc3C2)ccc1O [Example 10, (1,3-Dihydro-isoindol-2-yl)-(4-hydroxy-3-isopropyl-phenyl)-methanone]",< 100 nM,–,–
"COc1cc2c(cc1Cl)CN(C(=O)c1cc(C(C)C)c(O)cc1O)C2 [Example 33, (5-chloro-6-methoxy-1,3-dihydro-iso-indol-2-yl)-(2,4-dihydroxy-5-isopropyl-phenyl)-methanone]",< 100 nM,< 1000 nM,–
"CC(C)c1cc(C(=O)N2CCc3ccccc3C2)c(O)cc1O [Example 38, (3,4-dihydro-1H-isoquinolin-2-yl)-(2,4-dihydroxy-5-isopropyl-phenyl)-methanone]",< 100 nM,< 1000 nM,–
"COC(=O)c1ccc2c(c1)CN(C(=O)c1cc(C(C)C)c(O)cc1O)C2 [Example 43, 2-(2,4-dihydroxy-5-isopropyl-benzoyl)-2,3-dihydro-1H-isoindole-5-carboxylic acid methyl ester]",< 100 nM,< 1000 nM,–
"CC(C)c1cc(C(=O)N2Cc3ccc(C(=O)O)cc3C2)c(O)cc1O [Example 44, 2-(2,4-dihydroxy-5-isopropyl-benzoyl)-2,3-dihydro-1H-isoindole-5-carboxylic acid]",< 100 nM,–,–
"CC(C)NCCOc1ccc2c(c1)CN(C(=O)c1cc(C(C)C)c(O)cc1O)C2 [Example 48, (2,4-dihydroxy-5-isopropyl-phenyl)-[5-(2-isopropylamino-ethoxy)-1,3-dihydro-isoindol-2-yl]-methanone]",< 100 nM,< 1000 nM,–
CC(C)c1cc(C(=O)N2Cc3ccc(OCCNC(=O)CN4CCOCC4)cc3C2)c(O)cc1O [Example 49],< 100 nM,< 1000 nM,–
"CC(C)c1cc(C(=O)N2Cc3ccc(C(=O)N4CCNCC4)cc3C2)c(O)cc1O [Example 54, (2,4-dihydroxy-5-isopropyl-phenyl)-[5-(piperazine-1-carbonyl)-1,3-dihydro-isoindol-2-yl]-methanone hydrochloride]",< 100 nM,–,< 1000 nM
"CC(C)c1cc(C(=O)N2Cc3ccc(CN4CCN(C)CC4)cc3C2)c(O)cc1O [Example 55, (2,4-dihydroxy-5-isopropyl-phenyl)-[5-(4-methyl-piperazin-1-ylmethyl)-1,3-dihydro-isoindol-2-yl]-methanone]",< 100 nM,< 1000 nM,–
"CC(C)c1cc(C(=O)N2Cc3ccc(N4CCN(CCO)CC4)cc3C2)c(O)cc1O [Example 59, (2,4-Dihydroxy-5-isopropyl-phenyl)-{5-[4-(2-hydroxy-ethyl)-piperazin-1-yl]-1,3-dihydro-isoindol-2-yl}-methanone]",< 100 nM,< 1000 nM,–
"CC(C)c1cc(C(=O)N2Cc3ccc(N4CCC(N5CCOCC5)CC4)cc3C2)c(O)cc1O [Example 60, (2,4-Dihydroxy-5-isopropyl-phenyl)-[5-(4-morpholin-4-yl-piperidin-1-yl)-1,3-dihydro-isoindol-2-yl]-methanone]",< 100 nM,< 1000 nM,–
"CC(C)c1cc(C(=O)N2Cc3cccc(NC4CCNCC4)c3C2)c(O)cc1O [Example 67, (2,4-dihydroxy-5-isopropyl-phenyl)-[4-(piperidin-4-ylamino)-1,3-dihydro-isoindol-2-yl]-methanone]",< 100 nM,< 1000 nM,–
"CC(C)c1cc(C(=O)N2Cc3ccc(C4(O)CCNCC4)cc3C2)c(O)cc1O [Example 73, (2,4-Dihydroxy-5-isopropyl-phenyl)-[5-(4-hydroxypiperidin-4-yl)-1,3-dihydro-isoindol-2-yl]-methanone]",< 100 nM,–,–
"CC(C)c1cc(C(=O)N2Cc3cc(O)c(Cl)cc3C2)c(O)cc1O [Example 74, (5-chloro-6-hydroxy-1,3-dihydro-isoindol-dihydroxy-5-isopropyl-phenyl)-methanone]",< 100 nM,< 1000 nM,–

# Continued, in another order:
Kd [1],IC50 (HCT116 cell line; [2]),SMILES,"IC50 (HCT116 cell line; Homo sapiens, HCT-116, 72 h)"
< 1000 nM,–,"CC(C)(C)c1cc(C(=O)N2CCc3ccccc3C2)ccc1O [Example 11, (3-tert-Butyl-4-hydroxy-phenyl)-(3,4-dihydro-1H-isoquinolin-2-yl)-methanone]",–
–,< 1000 nM,"O=C(c1cc(Br)c(O)cc1O)N1Cc2ccccc2C1 [Example 19, (5-Bromo-2,4-dihydroxy-phenyl)-(1,3-dihydro-isoindol-2-yl)-methanone]",–
< 100 nM,< 1000 nM,"COCCOCCOc1cccc2c1CN(C(=O)c1cc(C(C)C)c(O)cc1O)C2 [Example 21, (2,4-Dihydroxy-5-isopropyl-phenyl)-{4-[2-(2-methoxy-ethoxy)-ethoxy]-1,3-dihydro-isoindol-2-yl}methanone]",–
< 100 nM,< 1000 nM,"CC(C)c1cc(C(=O)N2CC3CC2CO3)c(O)cc1O (stereo not shown) [Example 37, (2,4-dihydroxy-5-isopropyl-phenyl)-(2-oxa-5-aza-bicyclo[2.2.1]hept-5-yl)-methanone]",–
< 100 nM,< 1000 nM,"CC(C)c1cc(C(=O)N2Cc3ccc(N)cc3C2)c(O)cc1O [Example 39, (5-amino-1,3-dihydro-isoindol-2-yl)-(2,4-dihydroxy-5-isopropyl-phenyl)-methanone]",–
< 100 nM,< 1000 nM,"COc1ccc2c(c1)CN(C(=O)c1cc(C(C)C)c(O)cc1O)C2 [Example 40, (2,4-dihydroxy-5-isopropyl-phenyl)-(5-methoxy-1,3-dihydro-isoindol-2-yl)-methanone]",–
< 100 nM,< 1000 nM,"CC(C)c1cc(C(=O)N2Cc3ccc(N4CCC(N5CCN(C)CC5)CC4)cc3C2)c(O)cc1O [Example 51, (2,4-dihydroxy-5-isopropyl-phenyl)-{5-[4-(4-methyl-piperazin-1-yl)-piperidin-1-yl]-1,3-dihydro-isoindol-2-yl}-methanone]",–
< 1000 nM,< 1000 nM,"CC(C)c1cc(C(=O)N2Cc3ccc(-c4ccc(N5CCNCC5)cc4)cc3C2)c(O)cc1O [Example 52, (2,4-dihydroxy-5-isopropyl-phenyl)-[5-(4-piperazin-1-yl-phenyl)-1,3-dihydro-isoindol-2-yl]-methanone]",–
< 100 nM,< 1000 nM,"CC(C)c1cc(C(=O)N2Cc3ccc(N4CCN(C(C)C)CC4)cc3C2)c(O)cc1O [Example 62, (2,4-Dihydroxy-5-isopropyl-phenyl)-[5-(4-isopropyl-piperazin-1-yl)-1,3-dihydro-isoindol-2-yl]-methanone]",–
< 100 nM,< 1000 nM,"CC(C)c1cc(C(=O)N2Cc3ccc(CN4CCCCC4)cc3C2)c(O)cc1O [Example 72, (2,4-Dihydroxy-5-isopropyl-phenyl)-(5-piperidin-1-ylmethyl-1,3-dihydro-isoindol-2-yl)-methanone]",–
< 100 nM,< 1000 nM,"CN1CCN(c2ccc3c(c2)CN(C(=O)c2cc(Cl)c(O)cc2O)C3)CC1 [Example 75, (5-Chloro-2,4-dihydroxy-phenyl)-[5-(4-methyl-piperazin-1-yl)-1,3-dihydro-isoindol-2-yl]-methanone]",–
